Experiment [1] has as its system rat hepatic microsomal PTPases. The settings on record: PTPase activity, compound at 50 μM.
For a further experiment, the target named is T1, Human recombinant PTP1B (Homo sapiens, UniProt P18031).
T1 construct: made in house
T1 sequence (P18031 1-435): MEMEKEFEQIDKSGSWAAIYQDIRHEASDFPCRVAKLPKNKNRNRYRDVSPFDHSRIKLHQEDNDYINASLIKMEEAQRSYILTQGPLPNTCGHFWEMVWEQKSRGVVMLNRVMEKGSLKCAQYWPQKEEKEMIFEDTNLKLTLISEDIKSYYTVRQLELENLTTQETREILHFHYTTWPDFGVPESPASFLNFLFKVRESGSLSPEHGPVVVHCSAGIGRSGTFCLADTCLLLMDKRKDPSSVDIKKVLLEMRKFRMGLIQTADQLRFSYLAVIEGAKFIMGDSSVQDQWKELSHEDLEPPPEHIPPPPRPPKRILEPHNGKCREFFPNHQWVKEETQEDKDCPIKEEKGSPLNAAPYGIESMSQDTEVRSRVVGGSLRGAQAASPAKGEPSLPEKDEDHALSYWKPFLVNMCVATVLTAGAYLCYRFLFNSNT
In kind it is biochemical. The settings on record: read-out: IC50.

From US6110962A, “11-aryl-benzo[B]naphtho[2,3-D]furans and 11-aryl-benzo[B]naphtho[2,3-D]thiophenes useful in the treatment of insulin resistance and hyperglycemia” (American Home Products Corporation, priority 1999, dated 2000) come the findings set out here.

Structures can show the parent of a compound that is named as a salt.

A word on the IC50: it is the concentration that gives 50% inhibition. For the compound `O=C(O)[C@@H](Cc1ccccc1)Oc1c(Cl)cc(-c2c3ccccc3c(Br)c3sc4ccccc4c23)cc1Cl` [Example 130, (R)-2-[2,6-Dichloro-4-(6-bromo-benzo[b]naphtho[2,3-d]thiophen-11-yl)-phenoxy]l-3-phenyl-propionic acid], the “% Change from Control” value in experiment [1] was -72.14%. In addition, the IC50 on Human recombinant PTP1B stood at 800 nM. Taken in the same sequence, the figures for `O=C(O)[C@@H](CCN1C(=O)c2ccccc2C1=O)Oc1ccc(-c2c3ccccc3c(Br)c3sc4ccccc4c23)cc1` [Example 150] were -92.46% and 207 nM. In the same order, the values of `CC(C)c1cc(-c2c3ccccc3c(Br)c3sc4ccccc4c23)cc(C(C)C)c1O[C@H](C)C(=O)O` [Example 140, (R)-2-[4-(6-Bromo-benzo[b]naphtho[2,3-d]thiophen-11-yl)-2,6-diisopropyl-phenoxy)-propionic acid] are -71.19% and 204 nM. In the same order, the values of `NC(=O)[C@@H](Cc1ccccc1)Oc1c(Br)cc(-c2c3ccccc3c(Br)c3sc4ccccc4c23)cc1Br` [Example 166] are -26.86% and 565 nM. Turning to `O=C(O)[C@@H](Cc1c[nH]cn1)Oc1c(Br)cc(-c2c3ccccc3c(Br)c3sc4ccccc4c23)cc1Br` [Example 120, (R)-2-[2,6-Dibromo-4-(6-bromo-benzo[b]naphtho[2,3-d]thiophen-11-yl)-phenoxy]-3-(1 H-imidazol-4-yl)-propionic acid, hydrochloride], in experiment [1], the “% Change from Control” value is -17.35%. Besides, at Human recombinant PTP1B, the IC50 is 541 nM. Regarding `Oc1cc(Br)c(-c2c3ccccc3c(Br)c3sc4ccccc4c23)cc1O` [Example 71, 4-Bromo-5-(6-bromo-benzo[b]naphtho[2,3-d]thiophen-11-yl)-benzene-1,2-diol], in experiment [1], the “% Change from Control” value is given as -35.74%. Also, at Human recombinant PTP1B, the IC50 came out at 79 nM. As to `Cc1c2ccccc2c(-c2cc(Br)c(O)c(Br)c2)c2c1sc1ccccc12` [Example 62, 2,6-Dibromo-4-(6-methyl-benzo[b]naphtho[2,3-d]thiophen-11-yl)-phenol], the “% Change from Control” value in experiment [1] is listed as -40.14%. For the same compound, the IC50 on Human recombinant PTP1B is 654 nM.

For `Cc1c2ccccc2c(-c2cc(Br)c(O[C@H](Cc3ccccc3)C(=O)O)c(Br)c2)c2c1sc1ccccc12` [Example 141], the “% Change from Control” value in experiment [1] was -76.58%. Further, at Human recombinant PTP1B, the IC50 came to 126 nM. In the case of `CC(C)c1cc(-c2c3ccccc3c(Br)c3sc4ccccc4c23)cc(C(C)C)c1O` [Example 40, 4-(6-Bromo-benzo[b]naphtho[2,3-d]thiophen-11-yl)-2,6-diisopropyl-phenol], the “% Change from Control” value in experiment [1] is recorded as -1.40%. The IC50 at Human recombinant PTP1B was 1100 nM.

For `Brc1cc(-c2c3ccccc3c(Br)c3sc4ccccc4c23)cc(Br)c1OCc1nnn[nH]1` [Example 171, 5-[2,6-Dibromo-4-(6-bromo-benzo[b]naphtho[2,3-d]thiophen-11-yl)-phenoxymethyl]-1 H-tetrazole], the “% Change from Control” value in experiment [1] is reported as -71.04%. Moreover, the IC50 on Human recombinant PTP1B amounted to 302 nM. Taken in the same sequence, the figures for `O=C(O)[C@@H](Cc1ccccc1)Oc1c(Br)cc(-c2c3ccccc3c(Sc3ccncc3)c3sc4ccccc4c23)cc1Br` [Example 134, (R)-2-{2,6-Dibromo-4-[6-(pyridin-4-ylsulfanyl)-benzo[b]naphtho[2,3-d]thiophen-11-yl]-phenoxy}-3-phenyl-propionic acid] were -69.86% and 93 nM.

For `N#CCOc1c(Br)cc(-c2c3ccccc3c(Br)c3sc4ccccc4c23)cc1Br` [Example 169, [2,6-Dibromo-4-(6-bromo-benzo[b]naphtho[2.3-d]thiophen-11-yl)-phenoxy]-acetonitrile], the “% Change from Control” value in experiment [1] is -9.30%. Further, at Human recombinant PTP1B, the IC50 is 1220 nM. On to `Oc1c(-c2ccccc2)cc(-c2c3ccccc3cc3sc4ccccc4c23)cc1-c1ccccc1` [Example 190, 5'-Benzo[b]naphtho[2,3-d]thiophen-11-yl-[1,1':3', 1.increment.]terphenyl-2'-ol], for which the IC50 on Human recombinant PTP1B was 2000 nM.
